Experimental data: patent US20170260169A1, “INHIBITORS FOR STEROID RESPONSE ELEMENTS AND RNA POLYMERASE II AND RELATED METHODS” (priority 2007, published 2017)

What was measured:
p53 target genes = experiment: Quantitative RT-PCR of p53 target genes in LNCaP cells; type: cell-based
Procedure: (§1) RNA was extracted using RNEasy columns (Qiagen) according to manufacturer's protocols. cDNA was generated from RNA by reverse transcriptase (Transcriptor First Strand cDNA kit, Roche). Quantitative real-time RT-PCR was performed using SYBR Green PCR Master Mix (Applied Biosystems) on an ABI 7300 instrument. mRNA was measured relative to B glucuronidase as an endogenous control.
The cells were then treated with 1, 3, and 10 μM of 78 for 72 h. Total cellular RNA was extracted using RNEasy columns (Qiagen) following the manufacturer's protocols. Isolated RNA was reverse transcribed with Transcriptor First Strand cDNA kit (Roche). Quantitative real-time PCR was performed using SYBR Green PCR Master Mix (Applied Biosystems) on an ABI 7300 instrument. Amplification of p21, IGFBP3, and GADD45A cDNA was measured relative to β-glucuronidase using previously published primers (24). Experiments were performed in biological replicates.

[1] = tested on: duplex DNA containing the target site 5′-WGWWCW-3′; experiment: Thermal denaturation assay of DNA duplexes; type: binding; settings: duplex 5′-CGATGTTCAAGC-3′
Procedure: Polyamides 77 and 85 were incubated with duplex DNA 5′-[…]-3′ (SEQ ID NO:36), which contains the predicted target site for these compounds (underscore). Melting temperature analyses were performed on a Varian Cary 100 spectrophotometer as described (46). Melting temperatures were defined as a maximum of the first derivative of absorbance at 260 nm over the range of temperatures.
Thermal stabilization of the DNA oligo 5′-[…]-3′ (SEQ ID NO:37) by 77-80 (target sequence underlined) was determined as previously described (26).

[2] = tested on: AR occupancy at the FKBP5 intronic enhancer; experiment: Chromatin immunoprecipitation with anti-AR, FKBP5 fifth intron enhancer; type: cell-based; settings: 10 μM
LNCaP xenografts = LNCaP xenografts in male NSG mice; type: in vivo
Procedure: All mice experiments were conducted under an approved protocol by the Institutional Animal Care and Use Committee of the California Institute of Technology. Male NOD scid gamma (NSG) mice were purchased from The Jackson Laboratory. The animals were individually caged and maintained on a standard light-dark cycle. NSG mice were engrafted with LNCaP cells (2.5 million cells) in a mixture of 1:1 media and matrigel in the left flank. Tumors were grown to ˜100 mm^3 (L×W^2) before beginning treatment with compound or vehicle. Py-Im polyamide 77 was administered once every 3 days in a 5% DMSO:PBS vehicle solution until the experiment endpoint.
To investigate if polyamide 77 could be detected in peripheral blood after SC injections, 120 nmol of 77 (in 5% DMSO/PBS) was injected into the right flank of four C57BL/6 mice. Blood was collected from anesthetized mice via retroorbital collection at 5 minutes, 4 h, and 12 h after injection, then processed by methods previously described and analyzed by HPLC (35). For measurement of serum PSA (KLK3) and uric acid, blood was collected from anesthetized mice via retroorbital collection at experimental endpoint and serum was separated from blood by centrifugation. Serum PSA (KLK3) was measured by ELISA (R&D systems) according to manufacturer's instructions. Uric acid was measured as described (36).
Tumors were resected immediately after euthanasia and fixed in neutral buffered formalin. Selected samples were embedded in paraffin, sectioned and stained with hematoxylin and eosin (H&E). Selected sections were assessed by deoxynucleotidyltransferase dUTP nick-end labeling (TUNEL) as described (45).
Mice experiments were conducted under an approved protocol by the Institutional Animal Care and Use Committee of the California Institute of Technology. Male C57BL6/J mice and male NSG mice were purchased from The Jackson Laboratory. All animals were maintained on a standard light-dark cycle. LNCaP cells (2.5 million cells) were engrafted in a mixture of 1:1 media and matrigel in the left flank of NSG mice. Tumors were allowed grow to ˜200 mm^3 (0.5×L×W^2) before treatment. Py-Im polyamide 78 was administered by SC injection once every 3 d at 1 mg/kg in a 20% (vol/vol) DMSO:Normal saline vehicle solution for 6 injections. Animals were sacrificed two days after the final injection. Animal weight and general health were monitored daily. Fourteen animals were used for each treatment group.

[3] = tested on: DNA damage markers (γH2A.X, ATM, DNA-PKcs, p53, Chk2); experiment: Immunoblot of DNA damage markers, p53 and PARP in LNCaP cells; type: cell-based
Procedure: Samples for immunoblot analysis were prepared by plating LNCaP or DU145 cells at 1 million cells per 10 cm plate. Cells were allowed to adhere for 24-36 hr prior to incubation with compound. After the appropriate incubation time cells were washed once with ice cold PBS and harvested in ice cold 125 μL lysis buffer (50 mM Tris-HCl pH 7.4, 150 mM NaCl, 1 mM EDTA, 1% Triton X100) containing protease inhibitor cocktail (Roche), 1 mM PMSF (Sigma), and phosphatase inhibitors (Sigma). Samples were allowed incubate on ice for 10 min with vortexing once every 3 min. Cellular debris was pelleted by spinning at 14,000 rpm for 15 min to collect the supernatant. Samples were then quantified for protein content with the Bradford assay (Bio-rad) and boiled with 4× sample buffer (Li-Cor) for 5 min. Protein electrophoresis was performed in 4-20% precast Tris glycine SDS gels (Bio-rad) and transferred to PVDF membranes. Membrane blocking was done with Odyssey Blocking Buffer (Li-Cor). The following antibodies used to probe changes in protein levels or phosphorylation states: RBP1 (Santa Cruz Biotechnology, N20), p53 (Santa Cruz Biotechnology, DO1), phospho-Chk2-Thr68 (Cell Signaling Technology), Phospho-p53-Ser15 (Cell Signaling Technology), phosphor-H2A.X-Ser139 (Cell Signaling Technology), phosphor-ATM-Ser1981 (Abcam), phosphor-DNA-PKcs-Ser2056 (Abcam), and […] (Abcam). […]

RPB1 mRNA = experiment: Quantitative RT-PCR of RPB1 transcript in LNCaP cells; type: cell-based; settings: 10 μM
Procedure: as §1

p53 = p53 protein ELISA in LNCaP cells; type: cell-based; settings: polyamide 10 μM 72 hr; doxorubicin 1 μM 24 hr
Procedure: Cellular levels of RPB1 and p53 protein in LNCaP cells after treatment with 10 μM 3 for 72 h were determined by ELISA. Cells treated with DMSO vehicle and 1 μM doxorubicin for 24 h were used as control. Cellular RBP1 levels were determined by a RPB1 specific ELISA kit (Cusabio Life Sciences) according to manufacturer's instructions. Total cellular p53 protein level was determined with a pan-p53 ELISA kit (Roche) according to manufacturer's instructions. Assays were performed in biological triplicates.

[4] = 20 nmol SC every three days, three injections

CN(CCCNC(=O)c1cccc(C(=O)O)c1)CCCNC(=O)c1cc(NC(=O)c2cc(NC(=O)c3cc(NC(=O)c4nc(NC(=O)[C@H](N)CCNC(=O)c5cc(NC(=O)c6cc(NC(=O)c7cc(NC(=O)c8nccn8C)cn7C)cn6C)cn5C)cn4C)cn3C)cn2C)cn1C [Polyamide 1, ImPyPyPy-2-(R)H^2Nγ-ImPyPyPy-NHMe-IPA] was tested, and the “induction of p53 target genes” value (p53 target genes) was “induced expression of p53 genes”, the “DNA thermal stability analysis” value [1] was “comparable DNA binding” and the “occupancy of AR at the FKBP5 intronic enhancer” value [2] was “decreased occupancy”. The “tumor weight, mean” value (LNCaP xenografts; [4]) was 112 mg, the “tumor weight, median” value (LNCaP xenografts; [4]) was 94 mg and the “tumor weight, range” value (LNCaP xenografts; [4]) was 47 to 201 mg. The “body weight, LNCaP tumor-bearing NSG mice” value (LNCaP xenografts; 20 nmol, three injections) was “exhibited weight loss”, the “distress and weight, tumor-free NSG mice” value (LNCaP xenografts; 20 nmol, three injections) was “no signs of distress or weight loss” and the “reduction of tumor growth” value (LNCaP xenografts; after three rounds of treatment, vs vehicle) was 64%. For the same molecule, the “serum PSA post-treatment” value (LNCaP xenografts; compared to vehicle) was “lower”, the “immunohistological analysis of tumors” value (LNCaP xenografts; mouse, in vivo) was “evidence of cell death by TUNEL stain” and the serum uric acid (LNCaP xenografts; tumor bearing mice, vs vehicle and non-tumor bearing treated mice) was “increases serum uric acid”. The “cellular markers of DNA damage (phosphorylation)” value [3] was “did not induce cellular markers of DNA damage”, the “p53 accumulation and PARP cleavage” value [3] was “modest accumulation of p53 and PARP cleavage were observed” and the “expression of RPB1 mRNA” value (RPB1 mRNA) was “modestly increased”. The “cellular level of p53 protein” value (p53) was “increases”.
